According to patent US8232253B2, “Treatment of lung cancer” (Ramot at Tel-Aviv University Ltd., priority 2006, dated 2012):

What was measured:
[1] = test system: HTB-58 cells; experiment: HTB-58-cell-implanted nude mouse model, tumor growth; type: in vivo, nude mice; conditions: 10 mg/kg FTS i.p. daily
Method: Nude mice (6 weeks old) were housed in barrier facilities on a 12-h light/dark cycle. Food and water were supplied ad libitum. On day zero, A549 or HTB-58 cells (5×10^6 cells in 0.1 ml PBS) were implanted subcutaneously (s.c.) just above the right femoral joint. After 5 or 11 days the mice were separated randomly into control groups that had received only the vehicle and FTS-treated groups. Daily FTS treatments were administered either intraperitoneally (i.p.) or orally. Tumor volumes or weights were determined as described in Barkan, B., Starinsky, S., Friedman, E., Stein, R., Kloog, Y., Clin Cancer Res 12:5533-42 (2006). Gemcitabine treatment (36 mg/kg, i.p.) was administered every 4 days.
Tumor volume measured 14 days after cell implantation in that group was 0.02±0.045 cm^3 compared to 0.09±0.08 cm^3 in the vehicle-treated controls (P<0.05).

[2] = biological target: T1, K-Ras-GTP (Homo sapiens, UniProt P01116, G12S); experiment: K-Ras-GTP GST-RBD pull-down assay and immunoblotting in A549 cells; type: cell-based
T1 construct: endogenous in cells; host or cells: A549 (ATCC)
Method: (§1) A549 cells were incubated for 24 or 48 h with or without FTS, as described above, and then lysed with lysis buffer as described in Haklai, R., Gana-Weisz, M., Elad, G., et al., Biochemistry 37:1306-14 (1998). The apparent amounts of K-Ras-GTP in 0.5 mg protein of total cell lysates were determined by the glutathione-S-transferase (GST)-RBD (Ras-binding domain of Raf) pull-down assay, as described in (Elad-Sfadia, G., Haklai, R., Ballan, E., Gabius, H. J., Kloog, Y., J Biol Chem 277:37169-75 (2002). The apparent amounts of Rac1-GTP and of RhoA-GTP, each in 2 mg protein of total cell lysates, were determined, respectively, by pull-down assays with GST-PBD (Rac1-binding domain of PAK1)-conjugated and GST-Rhotekin BD (Rho-binding domain of Rhotekin)-conjugated beads [Benard, V., Bohl, B. P., Bokoch, G. M, J Biol Chem 274:13198-204 (1999); Fiordalisi, J. J., Keller, P. J., Cox, A. D., Cancer Res 66:3153-61 (2006). The pulled-down GTPases were subjected to SDS-PAGE followed by immunoblotting with the appropriate antibodies: anti K-Ras (1:30; Calbiochem, La Jolla, Calif.), anti Rac-1 (1:2500; Santa Cruz Biotechnology, Santa Cruz, Calif.), or anti RhoA (1:700; Upstate Biotechnology, Lake Placid, N.Y.). Immunoblots were exposed to 1:2500 peroxidase-goat anti-mouse IgG. Levels of phospho-ERK and phospho-Akt were determined by immunoblotting [Haklai, R., Gana-Weisz, M., Elad, G., et al., supra.] using rabbit anti phospho-ERK1/2 Ab (Santa Cruz Biotechnology, Santa Cruz, Calif.) and rabbit anti phospho-Akt Ab (Cell Signaling, Beverly, Mass.). Protein bands were visualized by enhanced chemiluminescence and quantified by densitometry using ImageJ computer software (National institutes of Health, Bethesda, Md.).
To determine whether active K-Ras-GTP and its prominent downstream signals to ERK and Akt were inhibited in A549 cells, and if so, whether the […] growth of the cells was also affected, two experiments were performed. First, A549 cells were incubated in the absence and in the presence of various concentrations of FTS and K-Ras-GTP, phospho-ERK and phospho-Akt levels were measured.

[3] = test system: Rac1-GTP; experiment: Rac1-GTP pull-down assay in A549 cells; type: cell-based, human
Method: as §1, with “The pulled-down GTPases were subjected to SDS-PAGE followed by immunoblotting with the appropriate antibodies: anti K-Ras (1:30; Calbiochem, La Jolla, Calif.), anti Rac-1 (1:2500; Santa Cruz Biotechnology, Santa Cruz, Calif.), or anti RhoA (1:700; Upstate Biotechnology, Lake Placid, N.Y.). Immunoblots were exposed to 1:2500 peroxidase-goat anti-mouse IgG.” left out, “Md.). […]” for “Md.).”

[4] = test system: human NSCLC cell lines H1734, H2030, H1975, H3255; experiment: Alamar blue viable cell assay in NSCLC cell lines; type: cell-based; conditions: increasing FTS concentrations, 96 hours; H1734, H2030 (KRAS mutations), H1975, H3255 (EGFR mutations)
Method: To determine whether FTS sensitized other human NSCLC cell lines to cell death, experiments were conducted on cell lines H1734 and H2030 (KRAS mutations) and H1975 and H3255 (EGFR mutations). The four cell lines were grown in increasing concentrations of FTS (dissolved in DMSO). After 96 hours, viable cells were quantified using an Alamar blue assay. Results are the mean±standard error of three independent experiments, in which there were 3 replicates of each condition, as shown in FIG. 15.

[5] = test system: phospho-Akt; experiment: Phospho-Akt immunoblotting in A549 cells; type: cell-based, human
Method: as §1, with “The pulled-down GTPases were subjected to SDS-PAGE followed by immunoblotting with the appropriate antibodies: anti K-Ras (1:30; Calbiochem, La Jolla, Calif.), anti Rac-1 (1:2500; Santa Cruz Biotechnology, Santa Cruz, Calif.), or anti RhoA (1:700; Upstate Biotechnology, Lake Placid, N.Y.). Immunoblots were exposed to 1:2500 peroxidase-goat anti-mouse IgG.” left out, “Md.). […]” for “Md.).”

T1 sequence (P01116 whole entry G12S): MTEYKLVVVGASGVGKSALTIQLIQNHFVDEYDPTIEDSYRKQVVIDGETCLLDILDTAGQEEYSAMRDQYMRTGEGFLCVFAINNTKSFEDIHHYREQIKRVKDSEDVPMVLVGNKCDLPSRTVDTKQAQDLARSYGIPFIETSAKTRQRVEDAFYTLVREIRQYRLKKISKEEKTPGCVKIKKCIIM

- reduction in K-Ras-GTP (mean±SD) ([2]; 25 μM FTS): 23±15.3%
- reduction in K-Ras-GTP (mean±SD) ([2]; 50 μM FTS): 37±3.7%
- reduction in K-Ras-GTP (mean±SD) ([2]; 75 μM FTS): 46±1.9%
- effective concentration range for the reduction in K-Ras-GTP ([2]; A549 cells): 50 to 75 µM
- effect on the total amount of Ras ([2]; A549 cells, various FTS concentrations): no significant effect
SMILES: CC(C)=CCC/C(C)=C/CC/C(C)=C/CSc1ccccc1C(=O)O [FTS, S-farnesylthiosalicylic acid]
- inhibition of tumor growth [1]: 76.4±48.8%
- tumor volume ([1]; 14 days after cell implantation): 0.02±0.045 cm^3
- effect on the amount of active Rac1-GTP [3]: no effect
- sensitization of NSCLC cell lines to cell death [4]: sensitized
- inhibition of phospho-Akt level [5]: 58±6%
